# Values quoted from earlier work in patent publication EP1165099B1, “ANGIOTENSIN II AND ANALOGS THEREOF FOR LIMITING SCAR AND ADHESION FORMATION” (UNIVERSITY OF SOUTHERN CALIFORNIA, priority 1999, dated 2006).
# Tested on: AT2 receptor
Substance,affinity for AT2 than AT1 (ratio of affinity AT2 over AT1) [times],binding characteristics (experimental models of the cited literature)
Asp-Arg-Val-Tyr-Ile-His-Pro-Phe [AII],100,
Asp-Arg-Val-Tyr-Ile-Xaa-Pro-Phe [(p-NH2-Phe)6-AII],,comparable to AT2 antagonists
